According to patent US8067009B1, “Metalloproteinase oligopeptides and their therapeutic use” (priority 2011, dated 2011):
Where no end group is shown, it is not given here.

How the values were obtained:
[1] = test system: human cervical cancer HeLa cells; assay: Matrigel invasion with anti-sera from immunized mice; type: cell-based; details: anti-sera 1:100 dilution, 24 hours, FIGS. 3A-3D
Protocol: Human cervical cancer (Hela) and murine melanoma B16F0 cells obtained from ATCC (American Type Culture Collection, Rockville, Md.) were maintained in Dulbecco's modified Eagle's medium supplemented with 10% fetal bovine serum and antibiotics. The media and sera used were obtained from ATCC, and antibiotics (penicillin and streptomycin) were from Gibco BRL, Long Island, N.Y.
Invasion studies were conducted using Matrigel™ (Becton Dickinson) inserts in 24-well plates. Suspended in medium containing anti-sera from the experimental immunized mice 1:100 dilution, human cervical cancer HeLa cells seeded on the insert in the well. The well has human dermal fibroblast primed media as chemotaxtant. The plates with the inserts were then incubated in a culture incubator equilibrated with 95% air and 5% CO: for 24 hours. After incubation, the media from the wells were withdrawn. The cells on the upper surface of the insert were gently scrubbed away with cotton swabs. The cells that had penetrated the Matrigel™ membrane were stained with hematoxylin and eosin (H&E) and visually counted under the microscope.

anti-peptide mouse IgG = assay: Anti-peptide immune response assay (Elisa) on serum of immunized mice; type: in vivo, Male C57BL/6 mice; details: for Elisa Test pep before B16FO given / Elisa Test pep after B16FO given: read at 450 nm
Protocol: In another embodiment, the synthesized oligopeptides were biotinylated at N-terminal using four carbon spacers by Genscript (Pitcataway, N.J. 08554 USA) and conjugated to KLH protein. In an experiment performed on mice animals were procured, immunized, tumor induced and observed for effectiveness of the treatment of oligopeptide-induced immunotherapy.
The injections were prepared using 100 μl l of KLH conjugated biotinylated peptides and 100 μl of complete Freund's adjuvant (Sigma, St. Louis, Mo.).
(§1) Male C57BL/6 mice 6 weeks of age on arrival were purchased from Simonsen Laboratories, Gilroy, Calif. and maintained in microisolator cage under pathogen-free conditions on a 12-h light/12-h dark schedule for a week. All animals were cared for in accordance with institutional guidelines for the care and use of experimental animals. After housing for a week, the mice (n=5/group) were immunized by intraperitoneal injection on Day 0, and incomplete Freund adjuvant (Sigma) on Day 7, 14 and 28. The blood samples were tested for their immune response by standard Elisa test using microtiter plates. Repeating injections of synthetic peptides in mice produce an immune response to specific individual peptides. Various dilutions were tried and examples of dilutions tried are 1:100, 1:1000 and 1:10000.
All four peptides were conjugated covalently to keyhole limpet hemocyanin (KLH) protein. In a typical experiment 1 mg of the peptide, 4 mg of KLH was dissolved in 5 ml of 0.01 M NaHCO3 and 2 μl of glutaraldehyde and stirred overnight. At the end 100 μl of 1M glycine ethyl ester to the final concentration of 0.1 M and left for 30 min at room temperature. Then precipitated with 4-5 vol of cold acetone at −70 C for 30 minute. Then briefly warmed at room temperature and pellet at 10,000 g for 10 min. The pellet was dissolved in 1 ml of 0.1M NaHCO3 and stored at −20° C.
Microtiter plates were coated with individual peptide in 100 µl/well […] carbonate buffer, pH 9.5 for 20 h at 20° C. After washing, wells were incubated with serial dilution of mouse serum in PBS/0.5% BSA, Tween 20 (binding buffer, BB). After washing, well were incubated with 100 µl/well rabbit anti-mouse IgG polyclonal antibody conjugated with horseradish peroxidase (HRP) in BB for 30 rain at 37° C. After washing, the titer of anti-peptide mouse IgG was determined by color reaction with TMB substrate solution at 450 nm.

[2] = test system: murine melanoma B16F0 cells; assay: Tumor growth after challenge of immunized mice with melanoma cells; type: in vivo, Male C57BL/6 mice; details: visual, FIG. 7 A-E
Source text: as §1
After dosing the mice, on 45th day, mice were bleed through orbital puncture and blood was collected in 2-ml micro centrifuged tube. After testing for immune response against individual peptides, the mice in each group were inoculated subcutaneously with 0.5×10^6 in 0.2 ml PBS. After injection, the mice were returned the cages and fed regular Purina mouse chow diet. After four weeks, the mice were sacrificed and their tumors were excised. Dimensions (length and width) of tumors were measured using digital caliper, and tumor burden was calculated using the following formula: […].

[3] = column 5, serum dilution 1:1000
[4] = column 5, serum dilution 1:10000
[5] = column 6, serum dilution 1:1000
[6] = column 6, serum dilution 1:10000
[7] = column 7, serum dilution 1:1000
[8] = column 7, serum dilution 1:10000
[9] = column 8, serum dilution 1:1000
[10] = column 8, serum dilution 1:10000
[11] = column 9, serum dilution 1:1000
[12] = column 9, serum dilution 1:10000
[13] = column 10, serum dilution 1:100
[14] = column 10, serum dilution 1:1000
[15] = column 10, serum dilution 1:10000
[16] = column 11, serum dilution 1:100
[17] = column 11, serum dilution 1:1000
[18] = column 11, serum dilution 1:10000
[19] = column 12, serum dilution 1:100
[20] = column 12, serum dilution 1:1000
[21] = column 12, serum dilution 1:10000

Substance	Elisa Test pep before B16FO given (anti-peptide mouse IgG; column 5, serum dilution 1:100)	Elisa Test pep before B16FO given (anti-peptide mouse IgG; [3])	Elisa Test pep before B16FO given (anti-peptide mouse IgG; [4])	Elisa Test pep before B16FO given (anti-peptide mouse IgG; column 6, serum dilution 1:100)	Elisa Test pep before B16FO given (anti-peptide mouse IgG; [5])	Elisa Test pep before B16FO given (anti-peptide mouse IgG; [6])	Elisa Test pep before B16FO given (anti-peptide mouse IgG; column 7, serum dilution 1:100)	Elisa Test pep before B16FO given (anti-peptide mouse IgG; [7])	Elisa Test pep before B16FO given (anti-peptide mouse IgG; [8])	Elisa Test pep before B16FO given (anti-peptide mouse IgG; column 8, serum dilution 1:100)	Elisa Test pep before B16FO given (anti-peptide mouse IgG; [9])	Elisa Test pep before B16FO given (anti-peptide mouse IgG; [10])	Elisa Test pep after B16FO given (anti-peptide mouse IgG; column 9, serum dilution 1:100)	Elisa Test pep after B16FO given (anti-peptide mouse IgG; [11])	Elisa Test pep after B16FO given (anti-peptide mouse IgG; [12])	Elisa Test pep after B16FO given (anti-peptide mouse IgG; [13])	Elisa Test pep after B16FO given (anti-peptide mouse IgG; [14])	Elisa Test pep after B16FO given (anti-peptide mouse IgG; [15])	Elisa Test pep after B16FO given (anti-peptide mouse IgG; [16])	Elisa Test pep after B16FO given (anti-peptide mouse IgG; [17])	also measured
-C-H-F-P-F-I-F-E-G-R-S-Y-S-A-C- (CHFPFIFEGRSYSAC; cysteine pairing not given here; also: biotinylated, KLH conjugate) [MMP-9 A-1, MMP-9 oligopeptide, biotinylated and conjugated to KLH for immunization]	3.898	3.402	.394	3.868	1.901	.274	3.843	1.033	.228	3.895	2.127	.330	3.897	3.624	.645	3.864	1.875	.244	3.820	.999	cells invading through the Matrigel compared to control [1]: more in number compared to MMP-9 A1 treated cells; Elisa Test pep after B16FO given (anti-peptide mouse IgG; [18]): .226; Elisa Test pep after B16FO given (anti-peptide mouse IgG; [19]): 3.87; Elisa Test pep after B16FO given (anti-peptide mouse IgG; [20]): 2.01; Elisa Test pep after B16FO given (anti-peptide mouse IgG; [21]): .22
-C-P-R-K-P-K-W-D-K-C- (CPRKPKWDKC; cysteine pairing not given here; also: biotinylated, KLH conjugate) [MMP-2 A-4, MMP-2 oligopeptide, biotinylated and conjugated to KLH for immunization]	1.485	.650	.220	2.409	.974	.257	1.811	.771	.208	1.649	.289	.168	1.836	.706	.290	3.172	1.286	.313	2.278	.775	intensity of immune response (anti-peptide mouse IgG; 1:100 dilution): slightly less; Elisa Test pep after B16FO given (anti-peptide mouse IgG; [18]): .230; Elisa Test pep after B16FO given (anti-peptide mouse IgG; [19]): 1.621; Elisa Test pep after B16FO given (anti-peptide mouse IgG; [20]): .294; Elisa Test pep after B16FO given (anti-peptide mouse IgG; [21]): .167
-D-R-D-K-L-F-G-F-C-P-T-R-A-D-S- (DRDKLFGFCPTRADS; also: biotinylated, KLH conjugate) [MMP-9 A-3, MMP-9 oligopeptide, biotinylated and conjugated to KLH for immunization]	3.775	.394	.159	3.810	2.157	.631	1.991	.272	.159	3.812	2.281	.267	3.776	.448	.167	3.814	1.332	.209	2.063	.448	size of excised tumors [2]: one of the tumors have completely disappeared; Elisa Test pep after B16FO given (anti-peptide mouse IgG; [18]): .158; Elisa Test pep after B16FO given (anti-peptide mouse IgG; [19]): 3.84; Elisa Test pep after B16FO given (anti-peptide mouse IgG; [20]): 2.34; Elisa Test pep after B16FO given (anti-peptide mouse IgG; [21]): .296
-D-T-D-D-R-F-G-F- (DTDDRFGF; also: biotinylated, KLH conjugate) [M MP-9 A-2, MMP-9 oligopeptide, biotinylated and conjugated to KLH for immunization]	3.581	.646	.224	3.863	1.339	.261	3.870	2.856	.477	3.238	.360	.175	3.635	.526	.203	3.609	.859	.235	3.465	.277	Elisa Test pep after B16FO given (anti-peptide mouse IgG; [18]): .161; Elisa Test pep after B16FO given (anti-peptide mouse IgG; [19]): 3.86; Elisa Test pep after B16FO given (anti-peptide mouse IgG; [20]): .274; Elisa Test pep after B16FO given (anti-peptide mouse IgG; [21]): .348
